The values below come from US20260258009A1, “3-[(BENZO[D][1,3]DIOXOLANE-4-YL)OXY]PROPYLAMINE HYDROCHLORIDE, OPTICAL ISOMER AND CRYSTAL THEREOF, AND PREPARATION METHOD THEREFOR” (priority 2022, published 2026).

For series [1], the system named is ICR mice. Nature of the series: Mouse forced swimming test. The settings on record: intragastric; for Immobility time: mice, 1 h after administration, mean±SD, n=12. The format is in vivo. The method, then: SPF grade ICR mice were taken. The animals were grouped by weight, 12 animals per group, and the animals were allowed to acclimate for at least 3 days before behavioural test.
The behavioural test was started 1 h after intragastric administration. The mice were placed in a transparent glass cylinder with water (water depth: 15 cm, water temperature: 23-25° C.) and video recorded for 6 min (the background was an LED light panel). At the end of the time, the mice were removed from the water and the next batch of mice was subjected to the behavioural test. Water was changed after every 3 batches of tests. After the test, the video of the behavioural test was derived and the cumulative immobility time of the mice 4 min after the 6 min forced swimming period was analyzed using the Forced Swim Scant 2.0 software.
The test results are expressed as mean±SD. Comparisons between each group and the vehicle group were conducted using the t-test. The differences were considered statistically significant when. P<0.05.

Series [2] concerns ICR mice. Nature of the series: in vivo. The settings on record: mouse acute toxicity LD50 / forced swimming ED50. Here is the method:
(§1) The dose administered at the time of the formal test was determined based on the dose of the compound in the preliminary experiment that caused 100% and 0% death in mice. In the formal test, ICR mice were taken and randomly grouped, with 10 mice in each group, half male and half female, which were subjected to intragastric administration at 10 mL/kg.
(§2) From the results of the mouse acute toxicity test, the compound of formula (I) is least toxic. The therapeutic index (TI=LD50/ED50) was calculated based on the results of the mouse acute toxicity and efficacy test.

Series [3] is described as follows: in vivo. The settings on record: both sexes, ICR, mouse, in vivo, po. The method, then:
as §1, §2

Series [4] can be described thus: Solubility experiment (HPLC, external standard method). The format is physicochemical. The settings on record: 20 °C, water, thermodynamic from solid, Solubility. The method, then: The concentrated solution was placed in a 20° C. water bath thermostatic oscillator for overnight oscillation (supersaturation) and filtered. The filtrate was taken, 1 mL of which was precisely measured and placed in a 100 mL volumetric flask. A diluent (water) was added, the mixture was diluted to volume and mixed well, 1 mL of which was precisely measured and placed in a 10 mL volumetric flask. A diluent was added, the mixture was diluted to volume and mixed well as a test sample solution.
Control substance solution: A proper amount of 5 samples were respectively taken, precisely measured, dissolved in a proper amount of a diluent by ultrasonication, and diluted to give a solution containing about 0.1 mg of the sample per 1 mL. Two duplicate samples were prepared for each batch.
• (1) Preparation of buffer: About 2.6428 g ammonium sulfate was weighed and dissolved in 1000 mL of water. 2 mL of triethylamine was added, and the pH value was adjusted to 4.0 with dilute sulfuric acid. • (2) Preparation of mobile phase: Methanol-0.02 mol/L ammonium sulfate solution (2 mL triethylamine was added per 1000 mL, and the pH value was adjusted to 4.0 with dilute sulfuric acid) (45:55). 1000 mL was prepared, mixed well, filtered, and used after ultrasonic treatment.
Detection wavelength: 230 nm; flow rate: 1.0 mL/min; column temperature: 35° C.; sample injection volume: 20 μL; chromatographic column: Agilent Eclipse XDB-C18 chromatographic column (4.6×150 mm, 5 μm); mobile phase: methanol-0.02 mol/L ammonium sulfate solution (2 mL triethylamine was added per 1000 mL, and the pH value was adjusted to 4.0 with dilute sulfuric acid) (45:55).
20 μL of each solution was precisely measured, and injected separately into a liquid chromatograph. The chromatograms were recorded, and the solubility of the compounds was determined according to an external standard method.

Series [5] can be described thus: in vivo. The settings on record: both, beagle, dog; for half-life: t1/2.
Procedure: Each group had six beagle dogs, half male and half female.
Preparation of solutions: • 1) Intravenous injection administration: 0.9% Normal saline was used as a vehicle. • 2) Oral administration: According to the dose of 10 mg/kg (based on base), a corresponding mass of the drug was weighed according to the actual weight of the animal, and then filled into a capsule to be administered to the animal.

Molecules are shown by their SMILES.

Broadly, the ED50 is the midpoint of the dose-response relation. Usually LD50 stands for the dose expected to kill half of the subjects tested. Read a high LD50 as a less toxic substance. One may read the solubility as the concentration that dissolves in the medium under given conditions. Broadly, the AUC(0-t) is exposure summed from dosing to a finite time, without extrapolation to infinity. Lower therefore signals low exposure. For orientation: AUC(0-inf) means the area under the concentration-time curve extrapolated to infinity. Higher therefore signals more exposure. What is called Cmax is the highest concentration seen after dosing. As usually defined, the Tmax is the time at which the peak concentration occurs. For orientation: half-life means how long it takes for the measured level to halve. Read a low half-life as rapid decline. By bioavailability is commonly meant dose-corrected exposure relative to a reference, in per cent. The low end stands for little systemic uptake, the high end for much systemic uptake. On to `CNCC[C@@H](Oc1cccc2c1OCO2)c1ccccc1.Cl` [Compound of formula I, (R)—N-methyl-3-phenyl-3-[(benzo[d][1,3]dioxolan-4-yl)oxy]propylamine hydrochloride], for which the Immobility time in series [1] (0.2 mg/kg) is reported as 178.6 ± 17.0 s; in series [1] (0.4 mg/kg), 105.0 ± 72.1 s; in series [1] (0.8 mg/kg), 106.0 ± 59.7 s; in series [1] (1.6 mg/kg), 55.4 ± 41.1 s; in series [1] (15 mg/kg), 13.0 ± 23.3 s; in series [1] (30 mg/kg), 7.6 ± 4.4 s. Moreover, the “minimum effective dose (MED)” value in series [1] (mouse forced swimming) is recorded as 0.4 mg/kg. Besides, the median effective dose (ED50) in series [1] (po, mouse forced swimming, read-out: ED50 (median effective dose, FST-ED50)) was determined as 0.96 mg/kg. Moreover, in series [2], the “TI = LD50/ED50 (therapeutic index)” value was 120.4. The 50% lethal dose (LD50) at 7 days in series [3] (95% confidence interval of LD50) is 106 to 125 mg/kg; in series [3] (Mouse acute toxicity LD50 (median lethal dose)), 116 mg/kg. For the same compound, the solubility in series [4] is 33.2 mg/mL. Further, the AUC(0-t) in series [5] (iv, 0.3 mg/kg) was 117 ng·h/mL; in series [5] (po, 1 mg/kg), 100 ng·h/mL. The AUC(0-inf) in series [5] (iv, 0.3 mg/kg) was 119 ng·h/mL; in series [5] (po, 1 mg/kg), 102 ng·h/mL. Further, the Cmax in series [5] (iv, 0.3 mg/kg) worked out at 80.4 ng/mL; in series [5] (po, 1 mg/kg), 28.9 ng/mL. The Tmax is 0.08 h in series [5] (iv, 0.3 mg/kg) and 1.23 h in series [5] (po, 1 mg/kg). Moreover, the half-life was 2.15 h in series [5] (iv, 0.3 mg/kg) and 2.36 h in series [5] (po, 1 mg/kg). The compound also came in with a bioavailability in series [5] (po, Bioavailability) of 25.7%.
